{"source": "patent US10556900B2", "about": "“TrkA kinase inhibitors, compositions and methods thereof” (Merck Sharp & Dohme Corp., priority 2015, dated 2020)", "target": "human TrkA receptor (Homo sapiens (Human), UniProt P04629)", "sequence (P04629 33-796)": "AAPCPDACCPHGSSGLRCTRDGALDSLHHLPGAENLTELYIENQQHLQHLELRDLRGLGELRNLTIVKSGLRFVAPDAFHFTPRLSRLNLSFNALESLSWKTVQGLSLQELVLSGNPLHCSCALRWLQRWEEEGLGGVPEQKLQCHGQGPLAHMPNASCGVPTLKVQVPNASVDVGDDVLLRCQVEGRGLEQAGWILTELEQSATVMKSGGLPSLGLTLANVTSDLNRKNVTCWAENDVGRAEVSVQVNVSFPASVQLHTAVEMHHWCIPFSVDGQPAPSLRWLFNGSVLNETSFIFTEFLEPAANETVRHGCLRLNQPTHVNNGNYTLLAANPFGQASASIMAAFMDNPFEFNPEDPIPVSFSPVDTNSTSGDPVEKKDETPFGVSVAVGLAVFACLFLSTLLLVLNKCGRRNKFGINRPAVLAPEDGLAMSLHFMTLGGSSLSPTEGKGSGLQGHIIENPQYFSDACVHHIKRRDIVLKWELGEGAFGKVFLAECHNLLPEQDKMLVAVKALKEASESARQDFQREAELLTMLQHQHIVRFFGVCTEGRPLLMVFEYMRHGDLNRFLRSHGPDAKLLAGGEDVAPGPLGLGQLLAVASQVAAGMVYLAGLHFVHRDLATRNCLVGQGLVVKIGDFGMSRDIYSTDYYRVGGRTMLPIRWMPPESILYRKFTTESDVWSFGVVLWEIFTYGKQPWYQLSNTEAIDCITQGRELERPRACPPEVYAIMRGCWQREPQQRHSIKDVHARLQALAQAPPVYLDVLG", "experiment": "TrkA functional activity, DiscoverX PathHunter assay (NGF-stimulated U2OS cells)", "assay_type": "cell-based", "details": "U2OS cells expressing human TrkA-Prolink, Shc1-EA and p75NTR; compound 1 h, then NGF (~80% of maximal response) 3 h; luminescence", "experimental": "TrkA functional activity was measured using a DiscoverX PathHunter assay. In this assay, U2OS cells express the human TrkA receptor as a fusion with the weakly complementing fragment of B-galactosidase, which DiscoverX calls “Prolink (PK)”; additionally, Shc1 is fused with a larger fragment, which is called “Enzyme Acceptor (EA)”. Activation of the TrkA receptor, upon NGF addition, results in the kinase domain being phosphorylated, resulting in subsequent recruitment of Shc1-EA protein. That recruitment results in an active B-galactosidase enzyme that is detected by addition of a chemiluminescent substrate. The human p75^NTR protein was also expressed as a co-receptor for NGF.\nAll reagents were purchased from DiscoverX, except for the receptor agonists (NGF, BDNF, NT3) which were purchased from Peprotech. Cells were expanded and frozen into cryovials, and stored in the vapor phase of liquid nitrogen, and thawed immediately before use. Thawed cells were added to a 384-well plate at 7500 cells/well, and allowed to incubate overnight. Compound at various concentrations was added the following morning and allowed to incubate on cells for 1 h. Then, NGF was added at a concentration sufficient to elicit ˜80% of a maximal response and allowed to incubate for 3 h at ambient temperature. DiscoverX PathHunter detection reagent was then added and the plate was further incubated for 1 h in the dark. The plate was then read via luminescence on the Perkin Elmer Envision."}
{"smiles": "[2H]C(C)(O)c1cnc2c(NC(=O)c3cc(-c4ncccn4)c(C(F)(F)F)cc3F)c(-c3ccccc3)ccn12", "note": "(single isomer, unassigned) [Compound 74, (R and S)-2-Fluoro-N-(3-(1-hydroxyethyl-1-d)-7-phenylimidazo[1,2-a]pyridin-8-yl)-5-(pyrimidin-2-yl)-4-(trifluoromethyl)benzamide]", "values": [{"measurement": "IC50", "value": 4.2, "unit": "nM"}]}
{"smiles": "CC(C)(O)c1cnc2c(NC(=O)c3cc(-c4ccccn4)c(C(F)(F)F)cc3Cl)c(-c3ccccc3)ccn12", "note": "[Compound 18, 2-chloro-N-[3-(1-hydroxy-1-methylethyl)-7-phenylimidazo[1,2-a]pyridin-8-yl]-5-pyridin-2-yl-4-(trifluoromethyl)benzamide]", "values": [{"measurement": "IC50", "value": 6.7, "unit": "nM"}]}
{"smiles": "CC(O)c1cnc2c(NC(=O)c3cc(-c4ncccn4)c(C(F)(F)F)cc3F)c(-c3ccccc3)ncn12", "note": "(racemic) [Compound 71, (R and S)-2-Fluoro-N-(3-(1-hydroxyethyl)-7-phenylimidazo[1,2-c]pyrimidin-8-yl)-5-(pyrimidin-2-yl)-4-(trifluoromethyl)benzamide]", "values": [{"measurement": "IC50", "value": 6.6, "unit": "nM"}]}
{"smiles": "O=C(Nc1c(-c2ccccc2)ccc2c(CO)cnn12)c1cc(-c2ncccn2)c(C(F)(F)F)cc1F", "note": "[Compound 41, 2-fluoro-N-[3-(hydroxymethyl)-6-phenylpyrazolo[1,5-a]pyridin-7-yl]-5-pyrimidin-2-yl-4-(trifluoromethyl)benzamide]", "values": [{"measurement": "IC50", "value": 2.1, "unit": "nM"}]}
{"smiles": "Cn1ccc(-c2cc(C(=O)Nc3c(-c4ccccc4)ncn4c(CO)cnc34)c(F)cc2C(F)(F)F)n1", "note": "[Compound 70, 2-Fluoro-N-(3-(hydroxymethyl)-7-phenylimidazo[1,2-c]pyrimidin-8-yl)-5-(1-methyl-1H-pyrazol-3-yl)-4-(trifluoromethyl)benzamide]", "values": [{"measurement": "IC50", "value": 1.2, "unit": "nM"}]}
{"smiles": "CC(C)(O)c1cnc2c(NC(=O)c3cc(-c4ccccn4)c(C(F)(F)F)cc3F)c(-c3ccccc3)ccn12", "note": "[Compound 19, 2-fluoro-N-[3-(1-hydroxy-1-methylethyl)-7-phenylimidazo[1,2-a]pyridin-8-yl]-5-pyridin-2-yl-4-(trifluoromethyl)benzamide]", "values": [{"measurement": "IC50", "value": 1.9, "unit": "nM"}]}
{"smiles": "CC(C)(O)c1cnc2c(NC(=O)c3cc(-c4ncccn4)c(C(F)(F)F)cc3F)c(-c3ccccc3)ccn12", "note": "[Compound 11, 2-Fluoro-N-(3-(2-hydroxypropan-2-yl)-7-phenylimidazo[1,2-a]pyridin-8-yl)-5-(pyrimidin-2-yl)-4-(trifluoromethyl)benzamide]", "values": [{"measurement": "IC50", "value": 4, "unit": "nM"}]}
{"smiles": "CC(O)c1cnc2c(NC(=O)c3cc(-c4ncccn4)c(C(F)(F)F)cc3F)c(-c3ccc(F)cc3)ccn12", "note": "(single isomer, unassigned) [Compound 52, (R) or (S)-2-fluoro-N-[7-(4-fluorophenyl)-3-(1-hydroxyethyl)imidazo[1,2-a]pyridin-8-yl]-5-pyrimidin-2-yl-4-(trifluoromethyl)benzamide]", "values": [{"measurement": "IC50", "value": 4.9, "unit": "nM"}]}
{"smiles": "Cn1ccc(-c2cc(C(=O)Nc3c(-c4ccccc4)ccn4ccnc34)ccc2C(F)(F)F)n1", "note": "[Compound 34, 3-(1-Methyl-1H-pyrazol-3-yl)-N-(7-phenylimidazo[1,2-a]pyridin-8-yl)-4-(trifluoromethyl)benzamide]", "values": [{"measurement": "IC50", "value": 53, "unit": "nM"}]}
{"smiles": "Cn1ccc(-c2cc(C(=O)Nc3cn4cncc4nc3-c3ccccc3)c(F)cc2C(F)(F)F)n1", "note": "[Compound 64, 2-Fluoro-5-(1-methyl-1H-pyrazol-3-yl)-N-(2-phenylimidazo[1,5-a]pyrimidin-3-yl)-4-(trifluoromethyl)benzamide]", "values": [{"measurement": "IC50", "value": 5.5, "unit": "nM"}]}
{"smiles": "CC(O)c1n[nH]c2c(NC(=O)c3ccc(C(F)(F)F)c(-c4ccn(C)n4)c3)c(-c3ccccc3)ccc12", "note": "(single isomer, unassigned) [Compound 49, (R) or (S)-N-[3-(1-hydroxyethyl)-6-phenyl-1H-indazol-7-yl]-3-(1-methyl-1H-pyrazol-3-yl)-4-(trifluoromethyl)benzamide]", "values": [{"measurement": "IC50", "value": 2, "unit": "nM"}]}
{"smiles": "Cn1ccc(-c2cc(C(=O)Nc3c(-c4ccccc4)ccc4nc(C(C)(C)O)cn34)ccc2C(F)(F)F)n1", "note": "[Compound 1, N-(2-(2-Hydroxypropan-2-yl)-6-phenylimidazo[1,2-a]pyridin-5-yl)-3-(1-methyl-1H-pyrazol-3-yl)-4-(trifluoromethyl)benzamide]", "values": [{"measurement": "IC50", "value": 17, "unit": "nM"}]}
{"smiles": "CC(O)c1cnc2c(NC(=O)c3cc(-c4ccn(C)n4)c(C(F)(F)F)cc3F)c(-c3ccccc3)ccn12", "note": "(single isomer, unassigned) [Compound 25, (R) or (S)-2-fluoro-N-[3-(1-hydroxyethyl)-7-phenylimidazo[1,2-a]pyridin-8-yl]-5-(1-methyl-1H-pyrazol-3-yl)-4-(trifluoromethyl)benzamide]", "values": [{"measurement": "IC50", "value": 0.81, "unit": "nM"}]}
{"smiles": "O=C(Nc1c(-c2ccc(F)cc2)ccn2c(CO)cnc12)c1cc(-c2ncccn2)c(C(F)(F)F)cc1F", "note": "[Compound 51, 2-Fluoro-N-(7-(4-fluorophenyl)-3-(hydroxymethyl)imidazo[1,2-a]pyridin-8-yl)-5-(pyrimidin-2-yl)-4-(trifluoromethyl)benzamide]", "values": [{"measurement": "IC50", "value": 60, "unit": "nM"}]}
{"smiles": "Cn1ccc(-c2cc(C(=O)Nc3cn4c(C(=O)O)ncc4nc3-c3ccccc3)c(F)cc2C(F)(F)F)n1", "note": "[Compound 63, 3-(2-Fluoro-5-(1-methyl-1H-pyrazol-3-yl)-4-(trifluoromethyl)benzamido)-2-phenylimidazo[1,5-a]pyrimidine-6-carboxylic acid]", "values": [{"measurement": "IC50", "value": 32, "unit": "nM"}]}
{"smiles": "CC(O)c1cnc2c(NC(=O)c3cc(-c4ccn(C)n4)c(C(F)(F)F)cc3F)c(-c3ccccc3)ccn12", "note": "(single isomer, unassigned) [Compound 26, (R) or (S)-2-fluoro-N-[3-(1-hydroxyethyl)-7-phenylimidazo[1,2-a]pyridin-8-yl]-5-(1-methyl-1H-pyrazol-3-yl)-4-(trifluoromethyl)benzamide]", "values": [{"measurement": "IC50", "value": 0.31, "unit": "nM"}]}
{"smiles": "CC(O)c1cnc2c(NC(=O)c3cc(-c4ccccn4)c(C(F)(F)F)cc3F)c(-c3ccccc3)ccn12", "note": "(single isomer, unassigned) [Compound 30, (R) or (S)-2-fluoro-N-[3-(1-hydroxyethyl)-7-phenylimidazo[1,2-a]pyridin-8-yl]-5-pyridin-2-yl-4-(trifluoromethyl)benzamide]", "values": [{"measurement": "IC50", "value": 0.74, "unit": "nM"}]}
{"smiles": "Cc1ccccc1-c1ccn2c(C(C)(C)O)cnc2c1NC(=O)c1cc(-c2ncccn2)c(C(F)(F)F)cc1F", "note": "[Compound 55, 2-Fluoro-N-(3-(2-hydroxypropan-2-yl)-7-(o-tolyl)imidazo[1,2-a]pyridin-8-yl)-5-(pyrimidin-2-yl)-4-(trifluoromethyl)benzamide]", "values": [{"measurement": "IC50", "value": 82, "unit": "nM"}]}
{"smiles": "O=C(Nc1c(-c2ccccc2)ncn2c(CO)cnc12)c1cc(-c2ncccn2)c(C(F)(F)F)cc1F", "note": "[Compound 69, 2-Fluoro-N-(3-(hydroxymethyl)-7-phenylimidazo[1,2-c]pyrimidin-8-yl)-5-(pyrimidin-2-yl)-4-(trifluoromethyl)benzamide]", "values": [{"measurement": "IC50", "value": 6.5, "unit": "nM"}]}
{"smiles": "Cn1ccc(-c2cc(C(=O)Nc3c(-c4ccccc4)ccn4c(C(C)(C)O)cnc34)c(F)cc2C(F)(F)F)n1", "note": "[Compound 16, 2-fluoro-N-[3-(1-hydroxy-1-methylethyl)-7-phenylimidazo[1,2-a]pyridin-8-yl]-5-(1-methyl-1H-pyrazol-3-yl)-4-(trifluoromethyl)benzamide]", "values": [{"measurement": "IC50", "value": 0.2, "unit": "nM"}]}
